The target in the first assay is T1, Axl (Homo sapiens, UniProt P30530).
T1 construct: endogenous in cells; host or cells: HeLa cells
T1 sequence (P30530 26-894): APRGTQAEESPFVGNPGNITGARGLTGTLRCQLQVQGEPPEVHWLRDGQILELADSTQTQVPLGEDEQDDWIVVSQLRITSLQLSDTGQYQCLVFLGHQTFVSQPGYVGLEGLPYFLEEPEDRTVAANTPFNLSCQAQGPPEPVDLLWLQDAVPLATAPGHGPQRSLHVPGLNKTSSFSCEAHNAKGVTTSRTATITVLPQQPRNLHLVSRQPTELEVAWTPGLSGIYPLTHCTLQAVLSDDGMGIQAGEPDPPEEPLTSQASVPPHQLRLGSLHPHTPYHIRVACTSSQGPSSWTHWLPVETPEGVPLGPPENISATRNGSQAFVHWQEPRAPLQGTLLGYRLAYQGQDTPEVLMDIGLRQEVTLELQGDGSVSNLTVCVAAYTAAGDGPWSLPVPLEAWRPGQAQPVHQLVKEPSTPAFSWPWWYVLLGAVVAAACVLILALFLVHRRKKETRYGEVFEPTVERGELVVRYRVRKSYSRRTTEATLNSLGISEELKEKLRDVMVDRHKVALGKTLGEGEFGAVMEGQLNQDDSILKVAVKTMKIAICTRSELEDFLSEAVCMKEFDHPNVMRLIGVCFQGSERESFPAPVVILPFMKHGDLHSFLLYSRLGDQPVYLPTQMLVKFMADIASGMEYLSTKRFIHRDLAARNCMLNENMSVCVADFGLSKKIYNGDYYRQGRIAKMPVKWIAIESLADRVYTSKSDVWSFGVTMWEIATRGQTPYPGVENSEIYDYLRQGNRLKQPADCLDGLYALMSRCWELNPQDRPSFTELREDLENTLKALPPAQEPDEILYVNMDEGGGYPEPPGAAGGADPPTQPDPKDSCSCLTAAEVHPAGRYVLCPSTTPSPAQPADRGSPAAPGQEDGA
Description: Phospho-Akt in-cell Western assay (inhibition of Axl activity). The format is cell-based. The note with it: Table 2; Hela cells, Axl antibody cross-linking stimulation, phospho-Akt chemiluminescence. Put shortly: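 HeLa cells on poly-L-lysine, starved 24 h in 0.5% FCS DMEM with Axl/Fc 500 ng/mL, pre-treated with compound 1 h at 37° C. Axl stimulated 5 min by anti-Axl/anti-mouse antibody cross-linking. Fixed cells probed with anti-phospho-Akt and HRP secondary, chemiluminescence read.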
As for `CC(C)c1ccc(C(=O)n2nc(N)nc2Nc2ccc3c(c2)OCCO3)cc1` [compound 233, 3-amino-5-(1,4-benzodioxan-6-yl)amino-1-(4-iso-propylphenyl)carbonyl-1H-1,2,4-triazole], the IC50 (usually the concentration that inhibits the measured activity by half) is greater than 20 µM.

Molecule `Cc1ccc(C(=O)n2nc(N)nc2Nc2ccc3c(c2)OCCO3)cc1C` [compound 236, 3-amino-1-(3,4-dimethylphenyl)carbonyl-5-(1,4-benzodioxan-6-yl)amino-1H-1,2,4-triazole] returned an IC50 greater than 20 µM. On the same count and under the same terms, the figure for `CSc1ccc(C(=O)n2nc(N)nc2Nc2ccc3c(c2)OCCO3)cc1` [compound 238, 3-amino-5-(1,4-benzodioxan-6-yl)amino-1-(4-thiomethylphenyl)carbonyl-1H-1,2,4-triazole] is greater than 20 µM. In turn, `Cc1cc(C(=O)n2nc(N)nc2Nc2ccc3c(c2)OCCO3)ccc1F` [compound 241, 3-amino-5-(1,4-benzodioxan-6-yl)amino-1-[(4-fluoro-3-methyl)phenyl]carbonyl-1H-1,2,4-triazole] displayed an IC50 greater than 20 µM.

The same assay, now with this note: inhibition of Axl activity, Table 1.
`Nc1nc(Nc2ccc3c(c2)OCCO3)nn1C(=O)c1ccc(OCC(F)(F)F)cc1` [compound 230, 5-amino-3-(1,4-benzodioxan-6-yl)amino-1-(4-(2,2,2-trifluoroethoxy)phenyl)carbonyl-1H-1,2,4-triazole] showed a half-maximal inhibitory concentration (IC50) greater than 20 µM.

Turning to `NC(=O)COc1cccc(C(=O)n2nc(Nc3ccc4c(c3)OCCO4)nc2N)c1` [compound 231, 5-amino-1-(3-aminocarbonylmethoxy)phenylcarbonyl-3-(1,4-benzodioxan-6-yl)amino-1H-1,2,4-triazole], the IC50 was greater than 20 µM. With `CC(C)c1ccc(C(=O)n2nc(Nc3ccc4c(c3)OCCO4)nc2N)cc1` [compound 232, 5-amino-3-(1,4-benzodioxan-6-yl)amino-1-(4-iso-propylphenyl)carbonyl-1H-1,2,4-triazole], the IC50 was in the range of 1 to 10 µM.

As to `Cc1ccc(C(=O)n2nc(Nc3ccc4c(c3)OCCO4)nc2N)cc1C` [compound 234, 5-amino-1-(3,4-dimethylphenyl)carbonyl-3-(1,4-benzodioxan-6-yl)amino-1H-1,2,4-triazole], the IC50 lay within 1 to 10 µM.

For the molecule `Cc1cccc(C(=O)n2nc(Nc3cccc(OCS(C)(=O)=O)c3)nc2N)c1` [compound 235, 5-amino-1-(3-methylphenyl)carbonyl-3-[3-(methylsulfonylmethoxy)phenyl]amino-1H-1,2,4-triazole], the IC50 lay within 1 to 10 µM. Molecule `CSc1ccc(C(=O)n2nc(Nc3ccc4c(c3)OCCO4)nc2N)cc1` [compound 237, 5-amino-3-(1,4-benzodioxan-6-yl)amino-1-(4-thiomethylphenyl)carbonyl-1H-1,2,4-triazole] came in with an IC50 of 1 to 10 µM. `Nc1nc(Nc2ccc3c(c2)OCCO3)nn1C(=O)c1ccc([N+](=O)[O-])cc1` [compound 240, 5-amino-3-(1,4-benzodioxan-6-yl)amino-1-(4-nitrophenyl)carbonyl-1H-1,2,4-triazole] showed an IC50 greater than 20 µM. For the molecule `Cc1cc(C(=O)n2nc(Nc3ccc4c(c3)OCCO4)nc2N)ccc1F` [compound 242, 5-amino-3-(1,4-benzodioxan-6-yl)amino-1-[(4-fluoro-3-methyl)phenyl]carbonyl-1H-1,2,4-triazole], the IC50 is greater than 20 µM.

`Nc1ccc(C(=O)n2nc(Nc3ccc4c(c3)OCCO4)nc2N)cc1` [compound 243, 5-amino-1-(4-aminophenyl)carbonyl-3-(1,4-benzodioxan-6-yl)amino-1H-1,2,4-triazole] gave an IC50 of 1 to 10 µM. `Nc1nc(Nc2ccc3c(c2)OCCO3)nn1C(=O)c1ccc(C(F)(F)F)cc1` [compound 244, 5-amino-3-(1,4-benzodioxan-6-yl)amino-1-[(4-trifluoromethyl)phenyl]carbonyl-1H-1,2,4-triazole] registered an IC50 greater than 20 µM.

The same assay, now with this note: inhibition of Axl activity, phospho-Akt in-cell Western assay; Table 1.
For the molecule `Cc1cc(C)cc(C(=O)n2nc(Nc3ccc4c(c3)OCCO4)nc2N)c1` [compound 239, 5-amino-3-(1,4-benzodioxan-6-yl)amino-1-(3,5-dimethylphenyl)carbonyl-1H-1,2,4-triazole], the concentration for half-maximal inhibition (IC50) lay in the range of 1 to 10 µM.
